Results: patent US11931372B2, “Pharmaceutical composition containing pentacyclic triterpenoids” (SPV TIMSER, S.A.P.I. DE C.V., priority 2021, dated 2024)
Like-named read-outs stand apart in the source and are kept apart here.

Experiments:
[1] = tested on: murine respiratory tract tissue; conditions: mouse, in vivo, 14 days
[2] = Pharmacokinetic study in healthy volunteers, inhaled route by nebulizer; format: in vivo, human; conditions: GA by inhalation, FIGS. 13 and 14
Method: Alternative tests were conducted to verify the synergistic behavior of the compositions of interest. For this reason, the results of pharmacokinetic studies are described and disclosed herein below. The study was based on the application of different versions of the herein claimed pharmaceutical composition to healthy volunteers by the inhaled route of administration, by means of a nebulizer device. The volunteers were given the drug once every 24 hours for three days. In addition, blood samples were taken from them at different time points. These samples were analyzed to quantify glycyrrhizinic acid (GA) and Enoxolone (EN) contents through the mass coupled HPLC methodology. […]
Blood samples of 5 mL were taken from each of the individuals at 30 minutes and at 1, 2, 3, 6, 12, 24, 48, 72 and 96 hours after drug administration. Then, the AG and EN concentrations in these blood samples were determined using the mass coupled HPLC methodology. In all cases, both components were quantified.
The following tables denote pharmacokinetic results (Area Under the Curve (AUC)) of the two drugs assessed (GA and EN). The Area Under the Curve (AUC) is a parameter related to the drug quantity to which the body has been exposed. […] The AUC was calculated using the R programming language within the “PK” software bundle. […]

[3] = tested on: SARS-CoV; conditions: culture cells; cited from earlier work
[4] = 75 mg of GA administered orally; cited from earlier work
[5] = tested on: murine respiratory tract tissue; experiment: Toxicity and irritability assay by the inhaled route in murine rodents, histopathological lesion score; conditions: for Degenerative: Alveolar lesion score / Degenerative: Bronchial lesion score / Degenerative: Bronchiolar lesion score / Fibrosis: Alveolar Septa lesion score / Fibrosis: Peribronchial lesion score / Fibrosis: Peribronchiolar lesion score / Inflammatory: Bronchiolitis lesion score / Inflammatory: Bronchitis lesion score / Inflammatory: Hyaline Membrane lesion score / Inflammatory: Interstitial Pneumonia lesion score / Inflammatory: Vasculitis lesion score / Necrosis: Alveolar lesion score / Necrosis: Bronchial lesion score / Necrosis: Bronchiolar lesion score / Vascular: Alveolar edema lesion score / Vascular: Congestion lesion score / Vascular: Hemorrhage lesion score / Vascular: Interstitial edema lesion score / Vascular: Thrombosis lesion score / TOTAL damage and lesion rating: inhaled 10 min/day for 14 days; for Degenerative: Alveolar lesion score / Degenerative: Bronchial lesion score / Degenerative: Bronchiolar lesion score / Fibrosis: Alveolar Septa lesion score / Fibrosis: Peribronchial lesion score / Fibrosis: Peribronchiolar lesion score / Inflammatory: Bronchiolitis lesion score / Inflammatory: Bronchitis lesion score / Inflammatory: Hyaline Membrane lesion score / Inflammatory: Interstitial Pneumonia lesion score / Inflammatory: Vasculitis lesion score / Necrosis: Alveolar lesion score / Necrosis: Bronchial lesion score / Necrosis: Bronchiolar lesion score / Vascular: Alveolar edema lesion score / Vascular: Congestion lesion score / Vascular: Hemorrhage lesion score / Vascular: Interstitial edema lesion score / Vascular: Thrombosis lesion score: score 0-5; for TOTAL damage and lesion rating: sum of scores

CC1(C)[C@@H](O)CC[C@]2(C)[C@H]3C(=O)C=C4[C@@H]5C[C@@](C)(C(=O)O)CC[C@]5(C)CC[C@@]4(C)[C@]3(C)CC[C@@H]12 [EN, 18-β glycyrrhetinic acid]
Degenerative: Alveolar lesion score [1]: 0
Fibrosis: Alveolar Septa lesion score [1]: 0
Fibrosis: Peribronchial lesion score [1]: 0
Fibrosis: Peribronchiolar lesion score [1]: 0
Inflammatory: Bronchiolitis lesion score [1]: 0
Inflammatory: Bronchitis lesion score [1]: 0
Inflammatory: Hyaline Membrane lesion score [1]: 0
Inflammatory: Vasculitis lesion score [1]: 0
Necrosis: Alveolar lesion score [1]: 0
Necrosis: Bronchial lesion score [1]: 0
Necrosis: Bronchiolar lesion score [1]: 0
Vascular: Alveolar edema lesion score [1]: 0
Vascular: Congestion lesion score [1]: 2
Vascular: Hemorrhage lesion score [1]: 1
Vascular: Thrombosis lesion score [1]: 0

CC1(C)[C@@H](O[C@H]2O[C@H](C(=O)O)[C@@H](O)[C@H](O)[C@H]2O[C@@H]2O[C@H](C(=O)O)[C@@H](O)[C@H](O)[C@H]2O)CC[C@]2(C)[C@H]3C(=O)C=C4[C@@H]5C[C@@](C)(C(=O)O)CC[C@]5(C)CC[C@@]4(C)[C@]3(C)CC[C@@H]12 [GA, glycyrrhizic acid]
Time of initial peak value [2]: 60 min
Inhibition of SARS-CoV replication [3]: prevented virus replication in culture cells
EN concentration obtained by oral administration [4]: 200.3 ng/mL
Degenerative: Alveolar lesion score ([5]; High dosage): 0
Degenerative: Bronchial lesion score ([5]; High dosage): 1
Degenerative: Bronchiolar lesion score ([5]; High dosage): 1
Fibrosis: Alveolar Septa lesion score ([5]; High dosage): 0
Fibrosis: Peribronchial lesion score ([5]; High dosage): 0
Fibrosis: Peribronchiolar lesion score ([5]; High dosage): 0
Inflammatory: Bronchiolitis lesion score ([5]; High dosage): 0
Inflammatory: Bronchitis lesion score ([5]; High dosage): 0
Inflammatory: Hyaline Membrane lesion score ([5]; High dosage): 0
Inflammatory: Interstitial Pneumonia lesion score ([5]; High dosage): 3.5
Inflammatory: Vasculitis lesion score ([5]; High dosage): 0
Necrosis: Alveolar lesion score ([5]; High dosage): 0
Necrosis: Bronchial lesion score ([5]; High dosage): 1
Necrosis: Bronchiolar lesion score ([5]; High dosage): 0
Vascular: Alveolar edema lesion score ([5]; High dosage): 0
Vascular: Congestion lesion score ([5]; High dosage): 2
Vascular: Hemorrhage lesion score ([5]; High dosage): 2
Vascular: Interstitial edema lesion score ([5]; High dosage): 2
Vascular: Thrombosis lesion score ([5]; High dosage): 0
TOTAL damage and lesion rating ([5]; High dosage): 12.5
Degenerative: Alveolar lesion score ([5]; Low dosage): 0
Degenerative: Bronchial lesion score ([5]; Low dosage): 0.5
Degenerative: Bronchiolar lesion score ([5]; Low dosage): 0.5
Fibrosis: Alveolar Septa lesion score ([5]; Low dosage): 0
Fibrosis: Peribronchial lesion score ([5]; Low dosage): 0
Fibrosis: Peribronchiolar lesion score ([5]; Low dosage): 0
Inflammatory: Bronchiolitis lesion score ([5]; Low dosage): 0
Inflammatory: Bronchitis lesion score ([5]; Low dosage): 0
Inflammatory: Hyaline Membrane lesion score ([5]; Low dosage): 0
Inflammatory: Interstitial Pneumonia lesion score ([5]; Low dosage): 3
Inflammatory: Vasculitis lesion score ([5]; Low dosage): 0
Necrosis: Alveolar lesion score ([5]; Low dosage): 0
Necrosis: Bronchial lesion score ([5]; Low dosage): 0
Necrosis: Bronchiolar lesion score ([5]; Low dosage): 0
Vascular: Alveolar edema lesion score ([5]; Low dosage): 0
Vascular: Congestion lesion score ([5]; Low dosage): 2
Vascular: Hemorrhage lesion score ([5]; Low dosage): 3
Vascular: Interstitial edema lesion score ([5]; Low dosage): 1
Vascular: Thrombosis lesion score ([5]; Low dosage): 0
TOTAL damage and lesion rating ([5]; Low dosage): 10
Effect on basal lesions (in words) ([5]; increases according to the amount of administered drug): generation of additional lesions to the basal lesions
